The structures appear in SMILES notation.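 Results reflect a 48-hour exposure of cells in 96-well plates to compound at five concentrations. TGI marks complete inhibition of growth.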 Some results are limits rather than exact numbers.

What all share (experiment): NCI anticancer screen, dose series, 48 h
The subject of experiment [1] is EKVX NSCLC.
Experiment [2] relates to UACC-62 melanoma.
Experiment [3] deals with SF-295 CNS.
For experiment [4], the system named is NCI-H226 lung.
Experiment [5] deals with SF-268 CNS.
Experiment [6] has as its system A549 NSCLC.
For experiment [7], the system named is CAKI-1 renal.
The subject of experiment [8] is SR leukemia.
In experiment [9] the test system is HL-60(TB) leukemia.
Experiment [10] has as its system HT29 colon.
Experiment [11] concerns NCI-H23 lung.
The test system of experiment [12] is MOLT-4 leukemia.
Experiment [13] relates to SNB-75 CNS.
In experiment [14] the test system is A498 renal.
The test system of experiment [15] is OVCAR-4 ovarian.
Experiment [16] deals with T-47D breast.
The subject of experiment [17] is BT-549 breast.
The subject of experiment [18] is NCI/ADR-RES ovarian.
Experiment [19] deals with MDA-N.

Turning to `C/C=C1/C=CC2c3[nH]c4ccccc4c3CCN2C1` (stereo not given), the TGI in [1], in experiment [2], in experiment [3], in [4], in experiment [5] and in experiment [6] was greater than 400 µM throughout. Further, the TGI in [7], in experiment [8], in [9], in experiment [10], in experiment [11] and in experiment [12] was greater than 400 µM in each case.

With `COC(=O)N/N=c1\cc(C(=O)Nc2ccc(C)c(C)c2)oc2cc(O)ccc12`, the TGI in experiment [1], in experiment [13], in experiment [2], in [14], in [3] and in experiment [4] was greater than 100 µM each time. Further, the TGI in experiment [5], in experiment [15], in experiment [6], in experiment [7], in [8] and in experiment [9] was greater than 100 µM throughout. Besides, the TGI in experiment [10], in experiment [11] and in [12] was greater than 100 µM in each case.

As to `CS(=O)(=O)CCC1CCC(=O)O1` (stereo not given), the TGI in experiment [1], in experiment [13], in experiment [16], in [14], in [3] and in [4] was greater than 100 µM in each case. The TGI in [5], in experiment [17], in experiment [6], in [18], in experiment [7] and in [8] was greater than 100 µM throughout. In addition, the TGI in [9], in experiment [10], in [11] and in experiment [12] was greater than 100 µM each time.

As for `Cc1cc(C=O)c2c(=O)c3c(O)ccc(/C=C/C(C)C)c3oc2c1`, the TGI in [13], in experiment [2], in [3], in experiment [4], in [5] and in experiment [15] was greater than 100 µM throughout. Besides, the TGI in experiment [6] is greater than 100 µM; in experiment [7], greater than 100 µM; in experiment [8], 78.2 µM; in [9], 59.4 µM; in [10] it was greater than 100 µM; in [11], greater than 100 µM. Besides, the TGI in experiment [12] amounted to 86.5 µM.

On to `CCOc1ccc(OP2(=O)NC(=O)C=C(C)N2)cc1` (stereo not given), for which the TGI in experiment [1], in [13], in experiment [2], in experiment [14], in [3] and in experiment [4] was greater than 100 µM throughout. The TGI in experiment [5], in experiment [15], in experiment [6], in [7], in [8] and in experiment [9] was greater than 100 µM each time. Also, the TGI in experiment [10], in experiment [11] and in experiment [12] was greater than 100 µM in each case.

For `O=C(NC1CCCCC1)c1n[nH]nc1Cl`, the TGI in [1], in experiment [16], in experiment [2], in experiment [14], in [3] and in experiment [5] was greater than 100 µM in each case. Besides, the TGI in [17], in experiment [15], in experiment [6], in experiment [18], in experiment [7] and in experiment [10] was greater than 100 µM in each case. In addition, the TGI in experiment [11] and in [12] was greater than 100 µM throughout.

Consider `C(=NC12CC3CC(CC(C3)C1)C2)C1CCCCC1`, for which the TGI in [1], in experiment [19], in experiment [13], in experiment [2], in [14] and in [3] was greater than 100 µM in each case. For the same compound, the TGI in experiment [4], in experiment [5], in [17], in experiment [15], in [6] and in experiment [18] was greater than 100 µM each time. The TGI in experiment [7], in experiment [8], in experiment [9], in experiment [10], in experiment [11] and in [12] was greater than 100 µM throughout.

On to `Fc1ccc2c(c1)SC1=Nc3sc4cc(F)ccc4[n+]3CN12`, for which the TGI in experiment [1] stood at 79 µM; in experiment [13], 36.8 µM; in experiment [16] it was 55.4 µM; in experiment [2], 33.1 µM; in experiment [14], 33.5 µM; in experiment [3], 74 µM. For the same compound, the TGI in experiment [4] was 56.8 µM; in experiment [5], greater than 100 µM; in experiment [17] it was 43.6 µM; in experiment [15], 72.4 µM; in [6], 58.3 µM; in experiment [18], 63.6 µM. Also, the TGI in [7] was 39.3 µM; in [9], 0.184 µM; in experiment [10], greater than 100 µM; in experiment [11], 47.3 µM.

As to `CCCCCCC1OC23OC1CCC2C(O)CCC3O` (stereo not given), the TGI in experiment [1], in experiment [13], in experiment [2], in [14], in experiment [3] and in experiment [4] was greater than 100 µM each time. The TGI in experiment [5], in [17], in experiment [15], in experiment [18], in experiment [7] and in [8] was greater than 100 µM each time. The TGI in experiment [9], in [10], in [11] and in [12] was greater than 100 µM in each case.

As to `CCN(CC)c1ccc(Cl)c2c1C(O)(C(C)C)C2(C)C` (stereo not given), the TGI in [13] is 32 µM; in [14] it was 35.7 µM; in [3], 33 µM; in [4] it was 33.6 µM; in experiment [5], 44.2 µM; in experiment [15], 33.3 µM. Moreover, the TGI in experiment [6] was found to be 35.1 µM; in experiment [7] it was 34.2 µM; in experiment [9] it was 38.8 µM; in experiment [10], 24.5 µM; in experiment [11], 29 µM; in experiment [12], 35.8 µM.

For `CCCCCCCCCCCCCCCCOP(=O)([O-])OCC[N+](C)(C)C1CC(C)(C)N(O)C(C)(C)C1`, the TGI in [1], in [13], in [16], in experiment [2], in experiment [14] and in experiment [3] was greater than 100 µM in each case. The TGI in experiment [4], in experiment [5], in experiment [17], in experiment [15], in [6] and in experiment [18] was greater than 100 µM throughout. For the same compound, the TGI in [7], in [8], in [10] and in [11] was greater than 100 µM each time.

In the case of `COc1ccc(OC)c(/C=C2/C(=O)N=C(NC(C)=O)N2C)c1`, the TGI in experiment [1], in experiment [19], in [13], in experiment [2], in [3] and in experiment [4] was greater than 100 µM each time. For the same compound, the TGI in experiment [5], in experiment [17], in [15], in experiment [6], in experiment [18] and in [7] was greater than 100 µM each time. Also, the TGI in experiment [9], in experiment [10], in [11] and in [12] was greater than 100 µM throughout.

With `CC1OC(OC2C(OC(=O)[C@]34CCC(C)(C)C[C@H]3C3=CC[C@@H]5[C@@]6(C)CC[C@H](OC7OC(CO)C(O)C(O)C7OC7OC(CO)C(O)C(O)C7O)C(C)(C)[C@@H]6CC[C@@]5(C)[C@]3(C)CC4)OCC(O)C2O)C(O)C(O)C1OC1OCC(O)C(O)C1O` (stereo not given in full), the TGI in experiment [1] is 18.6 µM; in experiment [13], 31 µM; in experiment [16], 42.3 µM; in [2], 33.1 µM; in [14], 6.06 µM; in experiment [3], 25.7 µM. The TGI in experiment [4] stood at 26.2 µM; in experiment [5] it was 21.4 µM; in [17] it was 23.7 µM; in [15] it was 29.5 µM; in [6], 19.2 µM; in [18] it was 29.1 µM. For the same compound, the TGI in experiment [7] is 18.3 µM; in [8], 23.8 µM; in [9] it was 15.1 µM; in experiment [10] it was 19.8 µM; in experiment [11], 24.5 µM; in [12], 46.3 µM.

As for `COc1cc2c(cc1OCCCOc1cc3c(cc1OC)C(=O)N1CCC[C@H]1C(=O)N3)N=C[C@@H]1CCCN1C2=O`, the TGI worked out at 46.4 µM in experiment [1]; 36 µM in [13]; 77.3 µM in experiment [16]; 19.5 µM in experiment [2]; 37.9 µM in experiment [14]; 46.5 µM in experiment [3]. In addition, the TGI in experiment [4] was 35.5 µM; in experiment [5], greater than 100 µM; in experiment [17], 83.3 µM; in experiment [15], 42.4 µM; in [6] it was 57.4 µM; in experiment [18], greater than 100 µM. Also, the TGI in [7] was determined as 88.4 µM; in experiment [8] it was 3.71 µM; in [9], 42.3 µM; in experiment [10], 35.4 µM; in experiment [11], 57.4 µM; in experiment [12], 1.41 µM.

Values taken from PubChem BioAssay (NCI).
